# Measurements taken from ChEMBL document CHEMBL1201862, “PubChem BioAssay data set” (2004).
# Activity calls are given as the source filed them.
# Experiments:
# [1] = target: Serine/threonine-protein phosphatase (Homo sapiens, UniProt Q9BPW0); assay: inhibition of protein phosphatase 5 activity – biochemical, fluorescence, dose response (AID 2395)
# [2] = target: T1, Mannose-6-phosphate isomerase (Homo sapiens, UniProt P34949); assay: MPI inhibition at elevated mannose 6-phosphate – biochemical, fluorescence intensity, high mannose 6-phosphate, primary screen (AID 1220)
# T1 sequence (P34949 whole entry): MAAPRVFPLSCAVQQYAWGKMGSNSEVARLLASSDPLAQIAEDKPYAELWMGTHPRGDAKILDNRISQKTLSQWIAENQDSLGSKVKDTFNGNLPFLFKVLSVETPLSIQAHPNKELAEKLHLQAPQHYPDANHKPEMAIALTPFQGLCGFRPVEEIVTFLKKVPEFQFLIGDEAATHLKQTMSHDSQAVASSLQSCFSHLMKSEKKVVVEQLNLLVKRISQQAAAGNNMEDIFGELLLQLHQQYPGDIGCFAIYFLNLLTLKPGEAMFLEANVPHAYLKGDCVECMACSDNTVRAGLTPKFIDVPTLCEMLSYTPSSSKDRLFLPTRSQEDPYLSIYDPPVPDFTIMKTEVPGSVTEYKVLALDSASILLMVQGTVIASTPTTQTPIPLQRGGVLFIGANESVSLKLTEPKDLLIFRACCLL
# [3] = target: T2, Apoptotic protease-activating factor 1 (Homo sapiens, UniProt O14727); assay type: functional
# T2 sequence (O14727 whole entry): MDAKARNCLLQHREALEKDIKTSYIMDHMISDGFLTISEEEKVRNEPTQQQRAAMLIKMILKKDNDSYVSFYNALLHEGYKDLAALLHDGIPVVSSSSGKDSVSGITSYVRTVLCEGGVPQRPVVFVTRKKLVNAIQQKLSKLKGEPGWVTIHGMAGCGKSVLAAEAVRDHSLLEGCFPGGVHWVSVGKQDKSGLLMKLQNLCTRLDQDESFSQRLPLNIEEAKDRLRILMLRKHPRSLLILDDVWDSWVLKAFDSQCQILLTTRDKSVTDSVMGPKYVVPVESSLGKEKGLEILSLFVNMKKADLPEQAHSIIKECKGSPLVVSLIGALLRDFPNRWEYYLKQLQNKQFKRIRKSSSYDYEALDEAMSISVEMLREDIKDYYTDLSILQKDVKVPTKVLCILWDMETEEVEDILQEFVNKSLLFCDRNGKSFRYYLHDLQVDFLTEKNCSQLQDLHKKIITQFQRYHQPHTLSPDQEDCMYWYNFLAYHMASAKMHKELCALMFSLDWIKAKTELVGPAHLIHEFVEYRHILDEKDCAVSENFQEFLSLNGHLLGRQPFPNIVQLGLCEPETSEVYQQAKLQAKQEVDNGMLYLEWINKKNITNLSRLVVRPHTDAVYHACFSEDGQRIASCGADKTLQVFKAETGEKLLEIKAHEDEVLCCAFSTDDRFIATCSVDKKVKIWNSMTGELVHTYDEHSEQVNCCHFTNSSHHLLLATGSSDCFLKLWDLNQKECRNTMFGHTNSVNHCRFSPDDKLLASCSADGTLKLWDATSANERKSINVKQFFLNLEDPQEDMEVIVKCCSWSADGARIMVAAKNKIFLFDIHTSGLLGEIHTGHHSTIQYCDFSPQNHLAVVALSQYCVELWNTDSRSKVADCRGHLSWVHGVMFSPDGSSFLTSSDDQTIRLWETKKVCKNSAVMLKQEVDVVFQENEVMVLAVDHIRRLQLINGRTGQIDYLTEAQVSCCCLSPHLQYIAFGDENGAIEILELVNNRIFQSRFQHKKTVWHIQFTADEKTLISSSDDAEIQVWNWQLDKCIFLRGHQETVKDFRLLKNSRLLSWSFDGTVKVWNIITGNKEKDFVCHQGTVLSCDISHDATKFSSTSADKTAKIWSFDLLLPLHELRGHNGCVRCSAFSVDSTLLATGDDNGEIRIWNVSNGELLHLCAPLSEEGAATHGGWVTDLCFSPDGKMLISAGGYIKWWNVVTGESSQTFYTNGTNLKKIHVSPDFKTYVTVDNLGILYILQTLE
# [4] = target: Serine/threonine-protein phosphatase PP1-alpha catalytic subunit (Homo sapiens, UniProt P62136); assay: inhibition of protein phosphatase 1 activity – biochemical, fluorescence, dose response (AID 2394)
# Serine/threonine-protein phosphatase PP1-alpha catalytic subunit, sequence (P62136 whole entry): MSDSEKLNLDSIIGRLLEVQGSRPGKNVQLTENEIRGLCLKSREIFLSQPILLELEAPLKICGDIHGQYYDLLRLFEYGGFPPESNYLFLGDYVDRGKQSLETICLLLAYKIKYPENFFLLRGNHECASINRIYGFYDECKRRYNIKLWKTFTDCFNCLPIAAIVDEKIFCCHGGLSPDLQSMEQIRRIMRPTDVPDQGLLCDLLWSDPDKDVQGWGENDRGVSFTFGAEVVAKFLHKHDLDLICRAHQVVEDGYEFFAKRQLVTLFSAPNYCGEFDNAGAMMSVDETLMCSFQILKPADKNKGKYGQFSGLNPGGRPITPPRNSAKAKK
# Insulin-degrading enzyme = target: T3, Insulin-degrading enzyme (Homo sapiens, UniProt P14735); assay: Dose Response: Fluorescence polarization-based cell-based high throughput dose response assay for inhibitors of insulin-degrading enzyme (IDE). [Related pubchem assays: 434962 (Primary screen (IDE inhibitors in singlicate)), 449730 (Counterscreen (Cytotoxicity in triplicate)), 435028 (Confirmation (IDE inhibitors in triplicate)), 434984 (Summary …; assay type: functional
# T3 sequence (P14735 whole entry): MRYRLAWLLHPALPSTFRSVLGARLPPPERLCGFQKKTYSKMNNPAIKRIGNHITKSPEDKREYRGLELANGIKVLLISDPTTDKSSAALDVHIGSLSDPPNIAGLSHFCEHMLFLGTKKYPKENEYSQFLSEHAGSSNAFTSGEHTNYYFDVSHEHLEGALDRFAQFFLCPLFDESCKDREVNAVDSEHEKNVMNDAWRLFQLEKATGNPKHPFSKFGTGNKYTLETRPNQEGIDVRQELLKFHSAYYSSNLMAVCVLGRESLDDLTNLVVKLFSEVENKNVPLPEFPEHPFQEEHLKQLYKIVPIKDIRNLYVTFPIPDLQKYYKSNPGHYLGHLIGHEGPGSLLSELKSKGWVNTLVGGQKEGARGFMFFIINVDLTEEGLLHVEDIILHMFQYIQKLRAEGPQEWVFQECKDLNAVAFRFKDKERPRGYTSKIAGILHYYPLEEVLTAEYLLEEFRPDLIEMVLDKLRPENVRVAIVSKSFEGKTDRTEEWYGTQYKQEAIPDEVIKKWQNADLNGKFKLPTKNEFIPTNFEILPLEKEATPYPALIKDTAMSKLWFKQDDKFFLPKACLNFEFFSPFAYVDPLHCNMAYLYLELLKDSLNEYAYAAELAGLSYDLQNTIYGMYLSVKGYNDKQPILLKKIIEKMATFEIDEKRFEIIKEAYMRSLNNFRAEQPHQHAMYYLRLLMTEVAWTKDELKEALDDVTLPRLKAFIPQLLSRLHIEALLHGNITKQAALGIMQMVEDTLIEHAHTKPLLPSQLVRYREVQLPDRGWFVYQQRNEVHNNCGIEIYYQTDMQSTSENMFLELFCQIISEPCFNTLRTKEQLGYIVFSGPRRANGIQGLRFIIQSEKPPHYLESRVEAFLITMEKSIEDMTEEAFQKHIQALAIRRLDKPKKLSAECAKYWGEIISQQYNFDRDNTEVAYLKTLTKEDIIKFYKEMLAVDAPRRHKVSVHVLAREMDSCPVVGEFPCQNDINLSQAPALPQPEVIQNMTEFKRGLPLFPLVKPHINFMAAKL
# [5] = Luminescence-based cell-based high throughput dose response assay to identify activators of the DAF-12 from the parasite S. stercoralis (ssDAF-12).; assay type: functional
# [6] = Counterscreen for IDE inhibitors: Luminescence-based cell-based high throughput dose response assay to identify compounds that are cytotoxic to HEK cells. [Related pubchem assays: 434962 (Primary screen (IDE inhibitors in singlicate)), 449730 (Counterscreen (Cytotoxicity in triplicate)), 435028 (Confirmation (IDE inhibitors in triplicate)) …; assay type: functional; settings: HEK293
# Serine/threonine-protein phosphatase, sequence (Q9BPW0 whole entry): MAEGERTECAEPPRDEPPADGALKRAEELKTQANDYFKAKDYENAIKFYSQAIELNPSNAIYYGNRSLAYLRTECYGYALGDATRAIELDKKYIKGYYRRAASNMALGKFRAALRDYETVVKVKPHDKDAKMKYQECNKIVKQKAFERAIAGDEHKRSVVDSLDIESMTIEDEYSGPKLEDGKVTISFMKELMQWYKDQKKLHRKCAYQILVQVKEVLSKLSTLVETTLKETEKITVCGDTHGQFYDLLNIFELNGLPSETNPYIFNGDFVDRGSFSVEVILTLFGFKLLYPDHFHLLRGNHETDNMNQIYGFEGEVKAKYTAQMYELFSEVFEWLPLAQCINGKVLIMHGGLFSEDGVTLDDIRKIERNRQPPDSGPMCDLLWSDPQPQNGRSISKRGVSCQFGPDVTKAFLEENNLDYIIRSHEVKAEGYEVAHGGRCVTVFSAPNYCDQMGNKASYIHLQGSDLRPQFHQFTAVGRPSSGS
SMILES,IC50 [1],IC50 [2],IC50 [3],IC50 [4],IC50 (Insulin-degrading enzyme),IC50 [5],IC50 [6]
COc1ccc(/C=N/Nc2cc(N(C)C)nc(N(C)C)n2)cc1,4.01 µM (active),> 50 µM (not active),2.36 µM (active),> 67 µM (not active),,,
C/C(=N\c1cccc(C)c1)c1sc2ccccc2c1O,,,,,22.7 µM (not active),> 67.6 µM (inactive),43.1 µM (not active)
